US20020137929A1, “1 - (3-heterocyclylphenyl) isothiourea, -isourea, -guanidine and -amidine herbicidal agents” (Intellectual Property Department, BASF Aktiengesellschaft, priority 1998, published 2002)

Tests used:
CYPIR (Rice Flatsedge) = test: Preemergence weed control under flooded paddy conditions; assay type: in vivo, Cyperus iria; conditions: rated 3-4 weeks after treatment
Procedure, shortened: (§1)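 Ratings on a 0-9 visual scale cover stand, vigor, malformation, size, chlorosis and overall appearance relative to a control, taken three to four weeks post-treatment. Application was into flood water over freshly sown silt loam at roughly 0.0313 to 0.500 kg/ha.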

[1] = tested on: GLXMAW (Soybean, Williams); test: Preemergence herbicidal evaluation; assay type: in vivo, Glycine max, (L.) Merr. cv Williams; conditions: rated 4-5 weeks after treatment
Procedure, shortened: (§2)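 Sown cups got a single aqueous acetone spray of test compound (roughly 0.0156–0.500 kg/ha) before seedlings emerged. Evaluation, 4–5 weeks on, used a 0–9 visual scale covering plant stand, vigor, size, malformation, chlorosis and general appearance compared with controls.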

[2] = tested on: GLXMAW (Soybean, Williams); test: Postemergence herbicidal evaluation; assay type: in vivo, Glycine max, (L.) Merr. cv Williams; conditions: postemergence
Procedure, shortened: (§3)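 Herbicidal effect was judged by eye on a 0–9 scale covering stand, vigor, deformity, size and chlorosis, compared with controls, four to five weeks after seedlings about two weeks old were sprayed (40 psi, ~0.0156–0.500 kg/ha).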

ZEAMX (Corn, Field) = test: Preemergence herbicidal evaluation; assay type: in vivo, Zea mays; conditions: rated 4-5 weeks after treatment
Procedure, shortened: as §2

ECHCG (Barnyardgrass) = test: Postemergence herbicidal evaluation; assay type: in vivo, Echinochloa crus-galli; conditions: postemergence
Procedure, shortened: as §3

[3] = tested on: IPOHE (Morningglory, Ivyleaf); test: Preemergence herbicidal evaluation; assay type: in vivo, Ipomoea hederacea; conditions: rated 4-5 weeks after treatment
Procedure, shortened: as §2

ABUTH (Velvetleaf) [4] = test: Postemergence herbicidal evaluation; assay type: in vivo, Abutilon theophrasti; conditions: postemergence
Procedure, shortened: as §3

MOOVA (Monochoria) = test: Preemergence weed control under flooded paddy conditions; assay type: in vivo, Monochoria vaginalis; conditions: rated 3-4 weeks after treatment
Procedure, shortened: as §1

ORYSAT (Rice, Tebonnet) = test: Preemergence herbicidal evaluation; assay type: in vivo, Oryza sativa, (L.) Tebonnet; conditions: rated 4-5 weeks after treatment
Procedure, shortened: as §2

CYPSE (Flatsedge) = test: Preemergence weed control under flooded paddy conditions; assay type: in vivo, Cyperus serotinus; conditions: rated 3-4 weeks after treatment
Procedure, shortened: as §1

[5] = tested on: CHEAL (Lambsquarters, Common); test: Postemergence herbicidal evaluation; assay type: in vivo, Chenopodium album; conditions: postemergence
Procedure, shortened: as §3

ABUTH (Velvetleaf) [6] = test: Preemergence herbicidal evaluation; assay type: in vivo, Abutilon theophrasti; conditions: rated 4-5 weeks after treatment
Procedure, shortened: as §2

Q: Which “herbicidal effect rating, CYPIR” value (CYPIR (Rice Flatsedge); 0.0313 kg/ha) does the source give for `CCOC(=O)CN1C(=O)C(CC(=O)NS(=O)(=O)C(C)C)SC1=Nc1cc(-n2c(=O)cc(C(F)(F)F)n(C)c2=O)c(F)cc1Cl` (stereo not drawn) [Compound 117, Ethyl 2-{{2-chloro-5-[3,6-dihydro-3-methyl-2,6-dioxo-4-(trifluoromethyl)-1(2H)-pyrimidinyl]-4-fluorophenyl}imino}-5-{[(isopropylsulfonyl)-carbamoyl]methyl}-4-oxo-3-thiazolidineacetate] here?
A: 0.0

Q: And the “herbicidal effect rating, CYPIR” value (CYPIR (Rice Flatsedge); 0.0625 kg/ha)?
A: 2.0

Q: What about the “herbicidal effect rating, CYPIR” value (CYPIR (Rice Flatsedge); 0.1250 kg/ha) of the same compound?
A: 5.0

Q: And the “herbicidal effect rating, CYPIR” value (CYPIR (Rice Flatsedge); 0.2500 kg/ha)?
A: 6.0

Q: And the “Preemergence herbicidal rating GLXMAW” value ([1]; rate 0.0156 kg/ha)?
A: 0.0

Q: What about the “Preemergence herbicidal rating GLXMAW” value ([1]; rate 0.0313 kg/ha) of the same compound?
A: 0.0

Q: And the “Preemergence herbicidal rating GLXMAW” value ([1]; rate 0.0625 kg/ha)?
A: 1.0

Q: And the “Preemergence herbicidal rating GLXMAW” value ([1]; rate 0.1250 kg/ha)?
A: 1.0

Q: What about the “Preemergence herbicidal rating GLXMAW” value ([1]; rate 0.2500 kg/ha) of the same compound?
A: 1.0

Q: What about the “herbicidal rating GLXMAW” value ([2]; rate 0.0158 kg/ha) of the same compound?
A: 5.0

Q: And the “herbicidal rating GLXMAW” value ([2]; rate 0.0315 kg/ha)?
A: 5.0

Q: And the “herbicidal rating GLXMAW” value ([2]; rate 0.0630 kg/ha)?
A: 6.0

Q: And the “Preemergence herbicidal rating ZEAMX” value (ZEAMX (Corn, Field); rate 0.0156 kg/ha)?
A: 0.0

Q: And the “Preemergence herbicidal rating ZEAMX” value (ZEAMX (Corn, Field); rate 0.0313 kg/ha)?
A: 0.0

Q: What about the “Preemergence herbicidal rating ZEAMX” value (ZEAMX (Corn, Field); rate 0.0625 kg/ha) of the same compound?
A: 0.0

Q: And the “Preemergence herbicidal rating ZEAMX” value (ZEAMX (Corn, Field); rate 0.1250 kg/ha)?
A: 1.0

Q: And the “Preemergence herbicidal rating ZEAMX” value (ZEAMX (Corn, Field); rate 0.2500 kg/ha)?
A: 0.0

Q: And the “herbicidal rating ECHCG” value (ECHCG (Barnyardgrass); rate 0.0158 kg/ha)?
A: 1.0

Q: What about the “herbicidal rating ECHCG” value (ECHCG (Barnyardgrass); rate 0.0315 kg/ha) of the same compound?
A: 2.0

Q: And the “herbicidal rating ECHCG” value (ECHCG (Barnyardgrass); rate 0.0630 kg/ha)?
A: 1.0

Q: And the “Preemergence herbicidal rating IPOHE” value ([3]; rate 0.0156 kg/ha)?
A: 0.0

Q: What about the “Preemergence herbicidal rating IPOHE” value ([3]; rate 0.0313 kg/ha) of the same compound?
A: 0.0

Q: What about the “Preemergence herbicidal rating IPOHE” value ([3]; rate 0.0625 kg/ha) of the same compound?
A: 0.0

Q: And the “Preemergence herbicidal rating IPOHE” value ([3]; rate 0.1250 kg/ha)?
A: 0.0

Q: What about the “Preemergence herbicidal rating IPOHE” value ([3]; rate 0.2500 kg/ha) of the same compound?
A: 9.0

Q: What about the “herbicidal rating ABUTH” value (ABUTH (Velvetleaf) [4]; rate 0.0158 kg/ha) of the same compound?
A: 9.0

Q: And the “herbicidal rating ABUTH” value (ABUTH (Velvetleaf) [4]; rate 0.0315 kg/ha)?
A: 9.0

Q: And the “herbicidal rating ABUTH” value (ABUTH (Velvetleaf) [4]; rate 0.0630 kg/ha)?
A: 9.0

Q: What about the “herbicidal effect rating, MOOVA” value (MOOVA (Monochoria); 0.0313 kg/ha) of the same compound?
A: 6.0

Q: And the “herbicidal effect rating, MOOVA” value (MOOVA (Monochoria); 0.0625 kg/ha)?
A: 7.0

Q: What about the “herbicidal effect rating, MOOVA” value (MOOVA (Monochoria); 0.1250 kg/ha) of the same compound?
A: 9.0

Q: What about the “herbicidal effect rating, MOOVA” value (MOOVA (Monochoria); 0.2500 kg/ha) of the same compound?
A: 9.0

Q: What about the “Preemergence herbicidal rating ORYSAT” value (ORYSAT (Rice, Tebonnet); rate 0.0156 kg/ha) of the same compound?
A: 0.0

Q: What about the “Preemergence herbicidal rating ORYSAT” value (ORYSAT (Rice, Tebonnet); rate 0.0313 kg/ha) of the same compound?
A: 0.0

Q: What about the “Preemergence herbicidal rating ORYSAT” value (ORYSAT (Rice, Tebonnet); rate 0.0625 kg/ha) of the same compound?
A: 0.0

Q: What about the “Preemergence herbicidal rating ORYSAT” value (ORYSAT (Rice, Tebonnet); rate 0.1250 kg/ha) of the same compound?
A: 0.0

Q: And the “Preemergence herbicidal rating ORYSAT” value (ORYSAT (Rice, Tebonnet); rate 0.2500 kg/ha)?
A: 0.0

Q: And the “herbicidal effect rating, CYPSE” value (CYPSE (Flatsedge); 0.0625 kg/ha)?
A: 7.0

Q: And the “herbicidal effect rating, CYPSE” value (CYPSE (Flatsedge); 0.1250 kg/ha)?
A: 9.0

Q: What about the “herbicidal effect rating, CYPSE” value (CYPSE (Flatsedge); 0.2500 kg/ha) of the same compound?
A: 9.0

Q: And the “herbicidal rating CHEAL” value ([5]; rate 0.0158 kg/ha)?
A: 0.0

Q: And the “herbicidal rating CHEAL” value ([5]; rate 0.0315 kg/ha)?
A: 4.0

Q: And the “herbicidal rating CHEAL” value ([5]; rate 0.0630 kg/ha)?
A: 9.0

Q: What about the “Preemergence herbicidal rating ABUTH” value (ABUTH (Velvetleaf) [6]; rate 0.0156 kg/ha) of the same compound?
A: 0.0

Q: And the “Preemergence herbicidal rating ABUTH” value (ABUTH (Velvetleaf) [6]; rate 0.0313 kg/ha)?
A: 0.0

Q: What about the “Preemergence herbicidal rating ABUTH” value (ABUTH (Velvetleaf) [6]; rate 0.0625 kg/ha) of the same compound?
A: 0.0

Q: And the “Preemergence herbicidal rating ABUTH” value (ABUTH (Velvetleaf) [6]; rate 0.1250 kg/ha)?
A: 1.0

Q: What about the “Preemergence herbicidal rating ABUTH” value (ABUTH (Velvetleaf) [6]; rate 0.2500 kg/ha) of the same compound?
A: 9.0

Q: Which results are given for `C=CCN1C(=O)C(CC(=O)NS(=O)(=O)C(C)C)SC1=Nc1cc(-n2c(=O)cc(C(F)(F)F)n(C)c2=O)c(F)cc1Cl` (stereo not drawn) [Compound 118, 3-Allyl-2-{{2-chloro-5-[3,6-dihydro-3-methyl-2,6-dioxo-4-(trifluoromethyl)-1(2H)-pyrimidinyl]-4-fluorophenyl}imino}-N-(isopropylsulfonyl)-4-oxo-5-thiazolidineacetamide]?
A: herbicidal effect rating, CYPIR (CYPIR (Rice Flatsedge); 0.0313 kg/ha): 0.0; herbicidal effect rating, CYPIR (CYPIR (Rice Flatsedge); 0.0625 kg/ha): 0.0; herbicidal effect rating, CYPIR (CYPIR (Rice Flatsedge); 0.1250 kg/ha): 0.0; herbicidal effect rating, CYPIR (CYPIR (Rice Flatsedge); 0.2500 kg/ha): 0.0; Preemergence herbicidal rating GLXMAW ([1]; rate 0.0625 kg/ha): 1.0; Preemergence herbicidal rating GLXMAW ([1]; rate 0.1250 kg/ha): 0.0; Preemergence herbicidal rating GLXMAW ([1]; rate 0.2500 kg/ha): 3.0; herbicidal rating GLXMAW ([2]; rate 0.0158 kg/ha): 4.5; herbicidal rating GLXMAW ([2]; rate 0.0315 kg/ha): 5.0; herbicidal rating GLXMAW ([2]; rate 0.0630 kg/ha): 6.0; Preemergence herbicidal rating ZEAMX (ZEAMX (Corn, Field); rate 0.0625 kg/ha): 0.0; Preemergence herbicidal rating ZEAMX (ZEAMX (Corn, Field); rate 0.1250 kg/ha): 0.0; Preemergence herbicidal rating ZEAMX (ZEAMX (Corn, Field); rate 0.2500 kg/ha): 0.0; herbicidal rating ECHCG (ECHCG (Barnyardgrass); rate 0.0158 kg/ha): 0.0; herbicidal rating ECHCG (ECHCG (Barnyardgrass); rate 0.0315 kg/ha): 1.0; herbicidal rating ECHCG (ECHCG (Barnyardgrass); rate 0.0630 kg/ha): 1.0; Preemergence herbicidal rating IPOHE ([3]; rate 0.0625 kg/ha): 0.0; Preemergence herbicidal rating IPOHE ([3]; rate 0.1250 kg/ha): 1.0; Preemergence herbicidal rating IPOHE ([3]; rate 0.2500 kg/ha): 6.0; herbicidal rating ABUTH (ABUTH (Velvetleaf) [4]; rate 0.0158 kg/ha): 0.0; herbicidal rating ABUTH (ABUTH (Velvetleaf) [4]; rate 0.0315 kg/ha): 4.0; herbicidal rating ABUTH (ABUTH (Velvetleaf) [4]; rate 0.0630 kg/ha): 9.0; herbicidal effect rating, MOOVA (MOOVA (Monochoria); 0.0313 kg/ha): 4.0; herbicidal effect rating, MOOVA (MOOVA (Monochoria); 0.0625 kg/ha): 4.0; herbicidal effect rating, MOOVA (MOOVA (Monochoria); 0.1250 kg/ha): 6.0; herbicidal effect rating, MOOVA (MOOVA (Monochoria); 0.2500 kg/ha): 7.0; Preemergence herbicidal rating ORYSAT (ORYSAT (Rice, Tebonnet); rate 0.0625 kg/ha): 0.0; Preemergence herbicidal rating ORYSAT (ORYSAT (Rice, Tebonnet); rate 0.1250 kg/ha): 0.0; Preemergence herbicidal rating ORYSAT (ORYSAT (Rice, Tebonnet); rate 0.2500 kg/ha): 0.0; herbicidal effect rating, CYPSE (CYPSE (Flatsedge); 0.0313 kg/ha): 0.0; herbicidal effect rating, CYPSE (CYPSE (Flatsedge); 0.0625 kg/ha): 0.0; herbicidal effect rating, CYPSE (CYPSE (Flatsedge); 0.1250 kg/ha): 0.0; herbicidal effect rating, CYPSE (CYPSE (Flatsedge); 0.2500 kg/ha): 0.0; herbicidal rating CHEAL ([5]; rate 0.0158 kg/ha): 0.0; herbicidal rating CHEAL ([5]; rate 0.0315 kg/ha): 0.0; herbicidal rating CHEAL ([5]; rate 0.0630 kg/ha): 5.0; Preemergence herbicidal rating ABUTH (ABUTH (Velvetleaf) [6]; rate 0.0625 kg/ha): 9.0; Preemergence herbicidal rating ABUTH (ABUTH (Velvetleaf) [6]; rate 0.1250 kg/ha): 9.0; Preemergence herbicidal rating ABUTH (ABUTH (Velvetleaf) [6]; rate 0.2500 kg/ha): 7.0
